Experiments:
[1] = test system: TNFα; test: Inhibition of LPS-induced TNFα in normal human PBMC (ELISA); format: cell-based; details: for TNFa: LPS-stimulated PBMC supernatant; for TNFa Inhibition Ratio (%): LPS-stimulated PBMC
Text: (§1) Materials: • 1) Cell: PBMC (Peripheral Blood […]) • 2) Drugs: Sophora flavescens flavonoids extract and Kurarinone (Exp. 1) • 3) Positive control: Dexamethason (DEX) • 4) Reagents: Ficoll-Paque Plus (Amersham Bioscience), LPS and dexamethason (CalBiochem.), TNFa ELISA (Enzyme Linked Immunosorbent Assay) Kit and IL1-β ELISA Kit (Jingmei Bioengineer Technology), DMSO (Dimethylsulfoxide) (Sigma)
(§2) a. PBMC cells are isolated from fresh blood by using of Ficoll-Paque Plus reagent according to the protocol that the manufacturer recommends. Cells are suspended in RPMI 1640 media containing 10% FBS. 100 μl of 1×10^5 cells/ml is seeded in each well of 96 well plate, 1×10^4 cells total in each well and three wells for each reaction.
(§3) b. Samples are added into cells (final concentrations are 10, 30, 100 ug/ml, respectively. Sample volume that is added into each well is 10 μl). Final concentration of the positive control, dexamethason is 10 μM. 10 μl of media is added into the cells as a negative control. Then the plate is incubated in 37° C., 5% CO2 incubator for 15 minutes, 10 μl of 100 μg/ml LPS was added to each well except for negative controls. Incubate in 37° C., 5% CO2 incubator overnight.
(§4) c. Spin the plate at 1000 rpm for 15 minutes, transfer supernatant from each well to a new plate, measure the concentrations of TNFα and IL1-β by using assay kits. [formula]

[2] = test system: IL1-β; test: Inhibition of LPS-induced IL1-β in normal human PBMC (ELISA); format: cell-based; details: for IL-1β: LPS-stimulated PBMC supernatant; for IL-1βInhibition Ratio (%): LPS-stimulated PBMC
Text: as §1, §2, §3, §4

| Compound | TNFa ([1]; positive control 10 uM) | TNFa Inhibition Ratio (%) ([1]; positive control 10 uM) | IL-1β ([2]; positive control 10 uM) | IL-1βInhibition Ratio (%) ([2]; positive control 10 uM) | TNFa ([1]; sample 10 μg/ml) | TNFa ([1]; sample 30 μg/ml) | TNFa ([1]; sample 100 μg/ml) | TNFa Inhibition Ratio (%) ([1]; sample 10 μg/ml) | TNFa Inhibition Ratio (%) ([1]; sample 30 μg/ml) | TNFa Inhibition Ratio (%) ([1]; sample 100 μg/ml) | IL-1β ([2]; sample 10 μg/ml) | IL-1β ([2]; sample 30 μg/ml) | IL-1β ([2]; sample 100 μg/ml) | IL-1βInhibition Ratio (%) ([2]; sample 10 μg/ml) | IL-1βInhibition Ratio (%) ([2]; sample 30 μg/ml) | IL-1βInhibition Ratio (%) ([2]; sample 100 μg/ml) |
| --- | --- | --- | --- | --- | --- | --- | --- | --- | --- | --- | --- | --- | --- | --- | --- | --- |
| C[C@@H]1C[C@H]2[C@@H]3CCC4=CC(=O)C=C[C@]4(C)[C@@]3(F)[C@@H](O)C[C@]2(C)[C@@]1(O)C(=O)CO [DEX, Dexamethason, reference compound] | 120.9 ± 3.4 pg/mL | 61.3 ± 1.9% | 275.6 ± 5.3 pg/mL | 72.9 ± 1.6% |  |  |  |  |  |  |  |  |  |  |  |  |
| C=C(C)[C@H](CC=C(C)C)Cc1c(O)cc(OC)c2c1O[C@H](c1ccc(O)cc1O)CC2=O [Kurarinone, 4H-1-Benzopyran-4-one, 2-(2,4-dihydroxyphenyl)-2,3-dihydro-7-hydroxy-5-methoxy-8-[5-methyl-2-(1-methylethenyl)-4-hexenyl]-] |  |  |  |  | 92.2 ± 2.7 pg/mL | 39.5 ± 1.5 pg/mL | 2.1 ± 0.3 pg/mL | 52.5 ± 4.2% | 78.5 ± 4.1% | 98.8 ± 2.1% | 129.8 ± 8.4 pg/mL | 80.5 ± 3.7 pg/mL | 3.1 ± 0.3 pg/mL | 62.4 ± 4.2% | 75.0 ± 4.1% | 99.0 ± 0.5% |

Reference: patent US20050226943A1, “Extract of sophora flavescens flavonoids and uses thereof” (priority 2004, published 2005)
